# From patent US10947188B2, “Small molecule ferroptosis inducers” (THE TRUSTEES OF COLUMBIA UNIVERSITY IN THE CITY OF NEW YORK, priority 2016, dated 2021)
# Test system: HT-1080 cells
# Experiment: Lethality of commercially available CIL41/70 structural analogs
# Type: cell-based
# Details: Homo sapiens, tested once in technical triplicates
# Description: (§1) 1,000 cells per 36 μl were seeded in each well in 384-well plates. Lethal compounds were dissolved, and a twofold, 12-point dilution series was prepared in DMSO. Compound solutions were further diluted with media at 1:25, and 4 μl per well of the diluted solutions was added to cell cultures immediately after cells were seeded. […] When other cell-death-modulating compounds (100 nM sodium selenite, 1 μM cerivastatin, 100 μg/mL mevalonic acid) were used in cotreatments, they were supplemented to cell culture for 24 h before lethal compounds were added to cell culture, after which cells were further incubated for 24 h at 37° C. under 5% CO2. On the day of the viability measurement, we added 10 μl per well of 50% Alamar Blue diluted in media (Life Technologies) and further incubated the cells at 37° C. for 6 h. Fluorescence intensity (excitation/emission: 530/590) was measured with a Victor 3 plate reader (PerkinElmer), and the normalized viability was calculated as VL=(IL−I0)/(IV−I0), where VL, I0, IV, and IL are the normalized viability and the raw fluorescence intensities from the wells containing media, cells treated with a vehicle (negative control), and cells with the lethal compound (L), respectively. When the effect of a chemical modulator (M) on L was calculated, we instead used the equation VL|M=(IM,L−I0)/(IM,V−I0), where VL|M, IM,L and IM,V are the normalized viability, and fluorescence intensity from cells treated with […], respectively. The viability was typically measured in biological triplicate unless otherwise specified. A representative dose-response curve, the mean and standard error of normalized viability from one replicate were plotted. HT-1080 viability after modulator treatments corresponding to FIG. 3C and FIGS. 5E-5F is available in FIGS. 19A-19C.
# Their lethality was tested once in HT-1080 cells in technical triplicates.
row,SMILES,EC50 [µg/mL]
1,N/C(Cc1ccc(Cl)cc1Cl)=N\OC(=O)C1CCCCC1 [AS1],> 20
2,CC(C)(C)C(=O)O/N=C(\N)Cc1ccc([N+](=O)[O-])cc1 [CB14],14
3,Cc1ccc(CC(=O)O/N=C(\N)Cc2cccc3ccccc23)cc1 [CB132],> 20
4,Cc1nn(C/C(N)=N/OC(=O)C2CCCCC2)c(C)c1Br [ZE1],> 20
5,Cc1cc(Br)ccc1OCC(=O)O/N=C(\N)Cc1ccc([N+](=O)[O-])cc1 [CB104],> 20
6,N/C(Cc1cccs1)=N\OC(=O)COc1ccccc1 [CB24],> 20
7,COc1ccc(CC(=O)O/N=C(\N)Cc2ccc([N+](=O)[O-])cc2)cc1OC [CB51],> 20
8,N/C(Cc1cccs1)=N\OC(=O)COc1ccc(Br)cc1 [CB30],> 20
9,N/C(Cc1cccc2ccccc12)=N\OC(=O)CCc1ccccc1 [VM4],> 20
10,COc1ccccc1C/C(N)=N/OC(=O)CC(c1ccccc1)c1ccccc1 [CB122],0.98
11,N/C(Cc1ccc([N+](=O)[O-])cc1)=N\OC(=O)Cc1ccccc1 [CB80],> 20
12,Cc1cc(OCC(=O)O/N=C(\N)Cc2cccc3ccccc23)cc(C)c1Br [CB102],> 20
13,CC(C)(C)c1ccc(C(=O)O/N=C(\N)Cc2cccs2)cc1 [B02],3.3
14,COc1ccc(C/C(N)=N/OC(=O)COc2ccccc2C)cc1 [CB31],> 20
15,N/C(Cc1ccc([N+](=O)[O-])cc1)=N\OC(=O)CCc1ccccc1 [VM5],> 20
16,N[C@H](Cc1ccc(Cl)cc1)NOC(=O)/C=C/c1ccccc1 [CB18],10.2
17,COc1ccccc1C/C(N)=N/OC(=O)COc1ccc(Br)c(C)c1 [CB45],> 20
18,N/C(Cc1ccc([N+](=O)[O-])cc1)=N\OC(=O)Cc1cccs1 [CB103],> 20
19,COc1ccc(C/C(N)=N/OC(=O)Cc2ccc(OC)c(OC)c2)cc1 [CB60],> 20
20,N/C(Cc1ccc([N+](=O)[O-])cc1)=N\OC(=O)CSc1ccccc1 [CB141],> 20
21,Cc1ccc(CC(=O)O/N=C(\N)Cc2ccc([N+](=O)[O-])cc2)cc1 [CB139],> 20
22,Cc1cc(Br)ccc1OCC(=O)O/N=C(\N)Cc1cccc2ccccc12 [CB107],> 20
23,N/C(Cc1cccc2ccccc12)=N\OC(=O)COc1ccccc1Cl [CB73],> 20
24,N/C(Cc1ccc([N+](=O)[O-])cc1)=N\OC(=O)C1CCCCC1 [CB2],> 20
25,COc1ccc(C/C(N)=N/OC(=O)COc2ccc(Br)c(C)c2)cc1OC [CB36],> 20

row,SMILES,EC50 [µg/mL]
1,N/C(COc1ccccc1)=N\OC(=O)C1CCCN1C(=O)c1ccco1 (stereo not shown) [EN7],> 20
2,N/C(Cc1ccc([N+](=O)[O-])cc1)=N\OC(=O)C(c1ccccc1)c1ccccc1 [CB56],4.05
3,N/C(Cc1cccc2ccccc12)=N\OC(=O)Cc1cccs1 [CB109],> 20
4,COc1ccccc1CC(=O)O/N=C(\N)Cc1ccc([N+](=O)[O-])cc1 [CB99],> 20
5,CC(C)(Oc1ccc(Cl)cc1)C(=O)O/N=C(\N)Cc1ccc([N+](=O)[O-])cc1 [CB117],> 20
6,CC(=O)NC(=N/OC(C)=O)/C(=N/OC(C)=O)c1nc2ccccc2[nH]1 [CB20],> 20
7,N/C(Cc1ccc([N+](=O)[O-])cc1)=N\OC(=O)CCC1CCCCC1 [CB96],> 20
8,N/C(Cc1ccc([N+](=O)[O-])cc1)=N\OC(=O)CC(c1ccccc1)c1ccccc1 [CB115],2.42
9,COc1ccccc1C/C(N)=N/OC(=O)Cc1ccc(Cl)cc1 [CB12],> 20
10,COc1ccc(C[C@@H](N)NOC(=O)C(c2ccccc2)c2ccccc2)cc1OC [CB54],> 20
11,Cc1cccc(OCC(=O)O/N=C(\N)Cc2ccc([N+](=O)[O-])cc2)c1C [CB118],> 20
12,N[C@H](Cc1ccc([N+](=O)[O-])cc1)NOC(=O)COc1ccc2ccccc2c1 [CB57],> 20
13,CC(C)c1ccc(OCC(=O)O/N=C(\N)Cc2ccc(Cl)cc2Cl)cc1 [CB88],> 20
14,Cc1cc(C)cc(C(=O)NCC(=O)O/N=C(\N)CC(=O)Nc2ccc(Cl)cc2)c1 [EN11],> 20
15,CC(=O)O/N=C(N)\C(=N/Nc1ccccc1)[N+](=O)[O-] [CB145],> 20
16,CC(=O)O/N=C(\N)COc1ccc(-c2nnco2)cc1 [MB10],> 20
17,COc1ccc(C/C(N)=N/OC(=O)Cc2ccc(Cl)cc2)cc1 [CB11],> 20
18,O=C(O/N=C1\CCCCCN1)C(Cl)Cl [EN3],> 20
19,CC(C)c1ccc(OCC(=O)O/N=C(\N)Cc2cccc3ccccc23)cc1 [CB90],> 20
20,N/C(Cc1ccc([N+](=O)[O-])cc1)=N\OC(=O)COc1ccc(Br)cc1 [CB43],> 20
21,CC(C)(C)C(=O)O/N=C(\N)Cc1ccc(-c2csnn2)cc1 [MB6],6.48
22,Cc1cc(Br)ccc1OCC(=O)O/N=C(\N)Cc1ccc(Cl)cc1Cl [CB110],> 20
23,COc1ccc(/C=C(\C#N)C(=O)O/N=C2\CCCCCN2)cc1 [EN1],> 20
24,COc1ccccc1C/C(N)=N/OC(=O)COc1ccc(C(C)(C)C)cc1 [CB5],> 20
25,N/C(Cc1cccc2ccccc12)=N\OC(=O)COc1ccccc1 [CB27],> 20

row,SMILES,EC50 [µg/mL]
1,N/C(Cc1ccc(Cl)cc1Cl)=N\OC(=O)CC1CCCCC1 [CB128],> 20
2,N/C(Cc1ccc([N+](=O)[O-])cc1)=N\OC(=O)COc1ccc(Cl)cc1Br [CB144],> 20
3,Cc1cccc(OCC(=O)O/N=C(\N)Cc2cccc3ccccc23)c1 [CB44],> 20
4,COc1ccccc1C/C(N)=N/OC(=O)COc1ccc(C)cc1C [CB15],> 20
5,COc1ccc(C/C(N)=N/OC(=O)COc2ccc3ccccc3c2)cc1 [CB53],> 20
6,CC(C)(Oc1ccc(Cl)cc1)C(=O)O/N=C(\N)Cc1cccc2ccccc12 [CB113],> 20
7,CC(Oc1cccc(Cl)c1)C(=O)O/N=C(\N)Cc1cccc2ccccc12 (stereo not shown) [CB134],> 20
8,N/C(Cc1cccs1)=N\OC(=O)C12CC3CC(CC(C3)C1)C2 [CB69],2.09
9,N/C(Cc1ccc(Cl)cc1)=N\OC(=O)Cc1ccc([N+](=O)[O-])cc1 [CB17],> 20
10,Cc1ccc(Cl)cc1N1CCN(C/C(N)=N/OC(=O)CCC(=O)NC2CCCCC2)CC1 [CD1],> 20
11,N/C(Cc1ccc(Cl)cc1Cl)=N\OC(=O)CCCOc1ccccc1 [CB138],> 20
12,COc1ccc(OCC(=O)O/N=C(\N)Cc2cccs2)cc1 [CB74],> 20
13,N/C(Cc1ccc(Cl)cc1Cl)=N\OC(=O)COc1ccccc1 [CB32],> 20
14,CCC(=O)O/N=C(/N)Cn1nc(C(F)(F)F)cc1C [ZE6],> 20
15,COc1ccccc1C/C(N)=N/OC(=O)COc1ccc(Br)cc1 [CB41],> 20
16,Cc1cccc(OCC(=O)O/N=C(\N)Cc2ccc(Cl)cc2)c1 [CB34],> 20
17,Cc1ccccc1OCC(=O)O/N=C(\N)Cc1ccc(Cl)cc1 [CB3],> 20
18,N/C(Cc1ccc(Cl)cc1Cl)=N\OC(=O)Cc1cccs1 [CB100],> 20
19,CC1=C(Br)C(C)N(C/C(N)=N/OC(=O)CC2CC3CCC2C3)N1 (stereo not shown) [ZE12],> 20
20,COc1ccc(CC(=O)O/N=C(\N)Cc2ccc(OC)c(OC)c2)cc1 [CB124],> 20
21,CC(C)(Oc1ccc(Cl)cc1)C(=O)O/N=C(\N)Cc1ccc(Cl)cc1Cl [CB119],> 20
22,CC(=O)O/N=C(N)/C(N)=N/OC(C)=O [ZE17],> 20
23,CC(C)(Oc1ccc(Cl)cc1)C(=O)O/N=C(\N)Cc1ccc(Cl)c(Cl)c1 [CB116],5.49

# Same assay, conditions: tested once in technical triplicates
row,SMILES,EC50 of CIL41/70 and structural analogs (lethality)
1,CC(=NOCC(=O)ON=C(N)COc1ccc(Cl)cc1Cl)c1ccc(Cl)cc1 [MB4],MB4 (>20 ug/mL)
2,COc1ccc(OCC(N)=NOC(=O)CON=C(C)c2ccc(Cl)cc2)cc1 [MB2],MB2 (>20 ug/mL)

# Test system: HT-1080 cells
# Experiment: Cell viability assay (Alamar Blue), lethal compounds with or without modulators
# Type: cell-based
# Details: HT-1080 cells; modulator cotreatment or pretreatment
# Description: as §1, with “HT-1080 viability after modulator treatments corresponding to FIG. 3C and FIGS. 5E-5F is available in FIGS. 19A-19C.” left out
row,SMILES,effect on FIN56 lethality
1,C[C@H](CCC(=O)O)C[C@H](C)C[C@H](C)C(=O)/C=C(\O)[C@H](C)C[C@H](C)C/C=C/[C@@H](C)[C@@H](O)[C@@H](C)[C@@H](O)C[C@@H]1CC[C@@](C)([C@H]2CC[C@@](C)([C@@H](C)O)O2)O1 [ionomycin],enhanced FIN56 lethality
2,O=C(O)CN(CC(=O)O)c1ccccc1OCCOc1ccccc1N(CC(=O)O)CC(=O)O [BAPTA],suppressed it
3,"O=C(O)CN(CCOCCOCCN(CC(=O)O)CC(=O)O)CC(=O)O [EGTA, Ethyleneglycol-O,O′-bis(2-aminoethyl)-N,N,N′,N′-tetraacetic acid]",suppressed it
4,CNc1ccc2oc(C[C@H]3O[C@@]4(CC[C@H]3C)O[C@H]([C@H](C)C(=O)c3ccc[nH]3)[C@H](C)C[C@H]4C)nc2c1C(=O)O [A23187],enhanced FIN56 lethality
